Experimental data from patent US20140023611A1 (priority 2010, published 2014).

Key:
human NaP2b (SLC34A2) = molecular target: T1, human NaP2b (SLC34A2) (Homo sapiens, UniProt O95436); experiment: Inhibition of NaP2b-mediated Pi (33P) uptake in transfected HEK293 cells, human NaP2b; format: cell-based; conditions: read-out: pIC50 range for human NaP2b (converted)
T1 construct: host or cells: HEK293
T1 sequence (O95436 1-690): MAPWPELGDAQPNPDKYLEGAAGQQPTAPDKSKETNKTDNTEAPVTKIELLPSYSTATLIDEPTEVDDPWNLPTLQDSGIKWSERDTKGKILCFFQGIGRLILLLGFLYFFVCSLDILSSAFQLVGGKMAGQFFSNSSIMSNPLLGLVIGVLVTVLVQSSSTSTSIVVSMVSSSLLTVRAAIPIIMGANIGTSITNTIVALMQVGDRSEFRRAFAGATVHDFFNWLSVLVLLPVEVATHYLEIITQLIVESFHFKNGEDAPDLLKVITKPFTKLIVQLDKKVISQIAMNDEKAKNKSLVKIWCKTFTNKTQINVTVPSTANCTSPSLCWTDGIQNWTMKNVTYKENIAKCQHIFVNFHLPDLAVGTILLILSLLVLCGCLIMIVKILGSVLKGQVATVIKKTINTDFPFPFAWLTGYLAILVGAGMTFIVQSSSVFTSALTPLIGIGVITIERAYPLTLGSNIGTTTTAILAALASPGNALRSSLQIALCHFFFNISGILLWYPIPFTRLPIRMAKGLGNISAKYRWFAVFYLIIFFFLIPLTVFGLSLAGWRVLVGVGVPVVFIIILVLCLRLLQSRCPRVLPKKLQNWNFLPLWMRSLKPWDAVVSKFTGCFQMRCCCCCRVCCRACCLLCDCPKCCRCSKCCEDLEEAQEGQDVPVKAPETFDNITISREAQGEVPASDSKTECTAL
Method: HEK293 cells were obtained from the American Type Culture collection and propagated per their instructions. Expression clones for rat and human NaP2b (SLC34A2) were obtained from Open Biosystems (Catalog numbers MRN1768-9510282, and MHS1010-99823026, respectively). The sequence of the human protein was mutated to insert a threonine after residue 37, and to introduce a N39D mutation.
The rate of phosphate (Pi) uptake into HEK293 cells was measured using a modification of the method described by Mohrmann et al. (Mohrmann, I., Mohrmann, M., Biber, J., and Murer, H. (1986) Am. J. Phys. 250(3 Pt 1):G323-30.) Transfected HEK293 cells were treated with a pharmacological agent to minimize endogenous PiT-mediated phosphate transport activity, such that the only remaining sodium-dependent phosphate transport activity is that which was bestowed by introduction of the NaP2b genes.
Cells were seeded into 96-well plates at 25,000 cells/well and cultured overnight. Lipofectamine 2000 (Invitrogen) was used to introduce the NaP2b cDNA, and the cells were allowed to approach confluence during a second overnight incubation. […] Cells were then overlayed with either choline uptake buffer or sodium uptake buffer (14 mM Tris, 137 mM sodium chloride, 5.4 mM KCl, 2.8 mM CaCl2, 1.2 mM MgSO4, 100 uM KH2PO4, PiT-silencing agent, 1 mg/mL Bovine Serum Albumin, pH 7.4) containing 6-9 uCi/mL ^33P orthophosphoric acid (Perkin Elmer) and test compound. Each compound was tested at twelve concentrations ranging from 0.1 nM to 30 uM. Assays were run in duplicate.
After incubation for 3-30 minutes at room temperature, assay mixtures were removed, and the cells were washed twice with ice cold stop solution (137 mM sodium chloride, 14 mM Tris, pH 7.4). Cells were lysed by addition of 20 μL 0.1% Tween 80 followed by 100 μL scintillation fluid, and counted using a TopCount (Perkin Elmer).
pIC50 (the negative log of the IC50) values of the test compounds were calculated using GraphPad Prism.

rat NaP2b (SLC34A2) = molecular target: T2, rat NaP2b (SLC34A2) (Rattus norvegicus, UniProt Q9JJ09); experiment: Inhibition of NaP2b-mediated Pi (33P) uptake in transfected HEK293 cells, rat NaP2b; format: cell-based; conditions: 33P Pi uptake, 0.1 mM phosphate, value given as pIC50 range
T2 construct: host or cells: HEK293
T2 sequence (Q9JJ09 1-695): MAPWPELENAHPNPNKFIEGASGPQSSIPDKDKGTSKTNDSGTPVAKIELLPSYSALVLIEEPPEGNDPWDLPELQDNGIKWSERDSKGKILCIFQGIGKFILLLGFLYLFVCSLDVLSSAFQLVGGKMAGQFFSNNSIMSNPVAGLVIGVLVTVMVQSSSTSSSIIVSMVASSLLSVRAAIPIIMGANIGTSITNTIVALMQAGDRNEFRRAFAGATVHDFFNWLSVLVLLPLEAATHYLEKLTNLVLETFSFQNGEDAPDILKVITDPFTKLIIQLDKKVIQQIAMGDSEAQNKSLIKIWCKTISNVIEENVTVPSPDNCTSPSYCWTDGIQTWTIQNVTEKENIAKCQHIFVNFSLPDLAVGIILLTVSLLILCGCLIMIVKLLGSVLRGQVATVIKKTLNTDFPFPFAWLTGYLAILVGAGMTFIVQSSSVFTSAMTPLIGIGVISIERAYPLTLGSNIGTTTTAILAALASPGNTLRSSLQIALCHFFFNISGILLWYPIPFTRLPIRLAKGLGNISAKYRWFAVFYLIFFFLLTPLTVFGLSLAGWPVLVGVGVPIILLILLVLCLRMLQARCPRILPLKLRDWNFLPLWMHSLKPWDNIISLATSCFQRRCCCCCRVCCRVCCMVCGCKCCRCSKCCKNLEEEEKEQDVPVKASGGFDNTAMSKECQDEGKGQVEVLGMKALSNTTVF
Method in brief: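 The cells transiently expressed NaP2b after Lipofectamine transfection. Each compound was run in duplicate over twelve concentrations, 0.1 nM–30 uM.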

Row | SMILES | IC50 (human NaP2b (SLC34A2)) [nM] | IC50 (rat NaP2b (SLC34A2)) [nM]
1 | CCN(CC)c1ccc(NC(=O)c2cccc(C(=O)N(C)CCN(C)CCOCCOCCOCCNC(=O)NCCN3CCOCC3)c2)c(-c2cc(C(=O)N[C@H]3CCCc4ccccc43)ccn2)c1 [Example 223, (S)—N1-(4-(diethylamino)-2-(4-(1,2,3,4-tetrahydronaphthalen-1-ylcarbamoyl)pyridin-2-yl)phenyl)-N3-methyl-N3-(17-methyl-1-morpholino-4-oxo-8,11,14-trioxa-3,5,17-triazanonadecan-19-yl)isophthalamide] | > 31600 | 10000 to 31600
2 | CCN(CC)c1ccc(NC(=O)c2cccc(CCCOCCOCCOCCOCCC(=O)N3CCN(S(=O)(=O)c4ccc(C)cc4)CC3)c2)c(-c2cc(C(=O)NCc3cccc(C(F)(F)F)c3)ccn2)c1 [Example 291, 2-(5-(diethylamino)-2-(3-(16-oxo-16-(4-tosylpiperazin-1-yl)-4,7,10,13-tetraoxahexadecyl)benzamido)phenyl)-N-(3-(trifluoromethyl)benzyl)isonicotinamide] | < 1000 | 1000 to 7940
3 | COCCOCCOCCOCCOCCOCCOCCN(C)C(=O)CCOCCOCCOCCOCCCc1cccc(C(=O)Nc2ccc(N3CCCCC3)cc2-c2cc(C(=O)NCc3cccc(C(F)(F)F)c3)ccn2)c1 [Example 276] | 1000 to 7940 | 1000 to 7940
4 | O=C(O)CCOCCOCCOCCOCCCc1cccc(C(=O)Nc2ccc(N3CCCCC3)cc2-c2cc(C(=O)NCc3cccc(C(F)(F)F)c3)ccn2)c1 [Example 303, 16-(3-(4-(piperidin-1-yl)-2-(4-(3-(trifluoromethyl)benzylcarbamoyl)pyridin-2-yl)phenylcarbamoyl)phenyl)-4,7,10,13-tetraoxahexadecan-1-oic acid] | < 1000 | 1000 to 7940
5 | CCN(CC)c1ccc(NC(=O)c2cccc(C(=O)N(C)CCN3CCN(C(=O)N(C)CCOCCOCCOCCC(=O)N4CCN(CCOCCO)CC4)CC3)c2)c(-c2cc(C(=O)N[C@H]3CCCc4ccccc43)ccn2)c1 [Example 231, 3-N-[4-(diethylamino)-2-(4-{[(1S)-1,2,3,4-tetrahydronaphthalen-1-yl]carbamoyl}pyridin-2-yl)phenyl]-1-N-(2-{4-[(2-{2-[2-(3-{4-[2-(2-hydroxyethoxy)ethyl]piperazin-1-yl}-3-oxopropoxy)ethoxy]ethoxy}ethyl)(methyl)carbamoyl]piperazin-1-yl}ethyl)-1-N-methylbenzene-1,3-dicarboxamide] | 10000 to 31600 | 10000 to 31600
6 | CN(Cc1cncn1C)C(=O)c1cccc(C(=O)Nc2ccc(N3CCCCC3)cc2-c2cc(C(=O)NCc3cccc(C(F)(F)F)c3)ccn2)c1 [Example 4.26] | < 1000 | 1000 to 7940

Further lines, results first:

Row | IC50 (human NaP2b (SLC34A2)) [nM] | IC50 (rat NaP2b (SLC34A2)) [nM] | SMILES
7 | 1000 to 7940 | 1000 to 7940 | O=C(O)CCSCc1cccc(C(=O)Nc2ccc(N3CCCCC3)cc2-c2cc(NCc3cccc(C(F)(F)F)c3)ncn2)c1 [Example 3.1, 3-((3-((4-(Piperidin-1-yl)-2-(6-((3-(trifluoromethyl)benzyl)amino)pyrimidin-4-yl)phenyl)carbamoyl)benzyl)thio)propanoic acid]
8 | < 1000 | < 1000 | CCN(CC)c1ccc(NC(=O)c2cccc(C(=O)N(C)CCN(C)CCOCCOCCOCCN=[N+]=[N-])c2)c(-c2cc(C(=O)N[C@H]3CCCc4ccccc43)ccn2)c1 [Example 222, (S)—N1-(14-azido-3-methyl-6,9,12-trioxa-3-azatetradecyl)-N3-(4-(diethylamino)-2-(4-(1,2,3,4-tetrahydronaphthalen-1-ylcarbamoyl)pyridin-2-yl)phenyl)-N1-methylisophthalamide]
9 | < 1000 | 1000 to 7940 | O=C(O)CCOCCOCCOCCNC(=O)c1cccc2c1ccn2Cc1cccc(C(=O)Nc2ccc(N3CCCCC3)cc2-c2cc(C(=O)NCc3cccc(C(F)(F)F)c3)ccn2)c1 [Example 9.2, 1-Oxo-1-(1-(3-((4-(piperidin-1-yl)-2-(4-((3-(trifluoromethyl)benzyl)carbamoyl)pyridin-2-yl)phenyl)carbamoyl)benzyl)-1H-indol-4-yl)-5,8,11-trioxa-2-azatetradecan-14-oic acid]
10 | < 1000 | < 1000 | CCN(CC)c1ccc(NC(=O)c2cccc(CSCCOCCOCCOCCOCCC(=O)NC(CO)CO)c2)c(-c2cc(C(=O)N[C@H]3CCCc4ccccc43)ccn2)c1 [Example 159, (S)-2-(5-(diethylamino)-2-(3-(20-hydroxy-19-(hydroxymethyl)-17-oxo-5,8,11,14-tetraoxa-2-thia-18-azaicosyl)benzamido)phenyl)-N-(1,2,3,4-tetrahydronaphthalen-1-yl)isonicotinamide]
11 | 1000 to 7940 | 1000 to 7940 | CCN(CC)c1ccc(NC(=O)c2cccc(CCCOCCOCCOCCOCCNS(=O)(=O)c3cccc(C(=O)O)c3)c2)c(-c2cc(C(=O)NCc3cccc(C(F)(F)F)c3)ccn2)c1 [Example 289, 3-(N-(15-(3-(4-(diethylamino)-2-(4-(3-(trifluoromethyl)benzylcarbamoyl)pyridin-2-yl)phenylcarbamoyl)phenyl)-3,6,9,12-tetraoxapentadecyl)sulfamoyl)benzoic acid]
12 | 1000 to 7940 | 1000 to 7940 | O=C(NCc1cccc(C(F)(F)F)c1)c1ccnc(-c2cc(N3CCCCC3)ccc2NC(=O)c2cccc(CCCOCCOCCOCCOCCC(=O)N(CCO)CCO)c2)c1 [Example 277]
13 | < 1000 | < 1000 | CN(CCOCCOCCOCCC(=O)N1CCN(CCOCCO)CC1)C(=O)Cc1cccc(SCc2cccc(C(=O)Nc3ccc(N4CCCCC4)cc3-c3cc(C(=O)N[C@H]4CCCc5ccccc54)ccn3)c2)c1 [Example 236, (S)-2-(2-(3-((3-(15-(4-(2-(2-hydroxyethoxy)ethyl)piperazin-1-yl)-3-methyl-21-2.15-dioxo-6,9,12-trioxa-3-azapentadecyl)phenylthio)methyl)benzamido)-5-(piperidin-1-yl)phenyl)-N-(1,2,3,4-tetrahydronaphthalen-1-yl)isonicotinamide]
14 | < 1000 | < 1000 | CCN(CC)c1ccc(NC(=O)c2cccc(CCCOCCOCCOCCOCCC(=O)N(C)CCOCCOCCOCCOCCOCCOCCOC)c2)c(-c2cc(C(=O)N[C@H]3CCCc4ccccc43)ccn2)c1 [Example 280]
15 | 1000 to 7940 | < 1000 | CN(CCN1CCCN(S(C)(=O)=O)CC1)C(=O)c1cccc(C(=O)Nc2ccc(N3CCCCC3)cc2-c2cc(C(=O)N[C@H]3CCCc4ccccc43)ccn2)c1 [Example 220, (S)—N1-methyl-N1-(2-(4-(methylsulfonyl)-1,4-diazepan-1-yl)ethyl)-N3-(4-(piperidin-1-yl)-2-(4-(1,2,3,4-tetrahydronaphthalen-1-ylcarbamoyl)pyridin-2-yl)phenyl)isophthalamide]
